{"source": "patent US9840494B2", "about": "“Quinazoline derivative” (Tianjin Hemay Oncology Pharmaceutical Co., Ltd., priority 2013, dated 2017)", "key": {"[1]": {"tested_on": "FaDu human head and neck cancer xenograft", "assay": "FaDu human head and neck cancer xenograft model", "type": "in vivo, nude mice", "settings": "for Tumor Weight (x ± S.D.) / Tumor Inhibitor Rate / Relative Tumor Volume (x ± S.D.) / T/C / Tumor Volume (x ± S.D.): FaDu xenograft; for Tumor Inhibitor Rate: by tumor weight; for Relative Tumor Volume (x ± S.D.) / T/C / Tumor Volume (x ± S.D.): end of the assay", "method": "(§1) Tumor cells were cultured in an incubator at 37° C. with 5% CO2 using MEM medium containing 10% inactivated fetal calf serum, 100 U/ml penicillin and 100 μg/ml streptomycin. The tumor cells in logarithmic growth phase were collected, adjusted to an appropriate density and injected subcutaneously into nude mice (0.2 ml per mouse). An xenograft model was established after tumor was formed in the nude mice and passaged in vivo for more than three generations.\n(§2) The above-mentioned tumor-bearing mice were sacrificed by cervical dislocation. The tumor was taken out and cut into small tumor pieces (about 2 mm×2 mm×2 mm) under sterile conditions. The small tumor pieces were inoculated subcutaneously into nude mice on the right shoulder blade with a trocar. […] The animals in each group were subjected to intragastric administration daily for 14 consecutive days. The day of grouping is assigned as day 0.\n(§3) Tumor volume is calculated as: volume=0.5×long diameter×short diameter^2. The relative tumor volume (RTV) was calculated based on the measurements as: RTV=Vt/V0, wherein V0 is the tumor volume measured when the animals were grouped to be administrated (i.e., d0), and Vt is the tumor volume when each measurement was taken. Relative tumor proliferation rate T/C was calculated based on relative tumor volume, in which T is the mean value of the relative tumor volume of the treatment group, and C is the mean value of the relative tumor volume of the solvent control group. T/C was calculated as follows: T/C=TRTV/CRTV×100% (TRTV: RTV of the treatment group; CRTV: RTV of the solvent control group) Inhibition rate (%)=(mean tumor weight of the solvent control group−mean tumor weight of the treatment group)/mean tumor weight of the solvent control group×100%. Percentage of body weight change=Wn/W0×100% (Wn: mean body weight of experimental animals in each group at day n, W0: mean body weight of experimental animals in each group at day 0).\n(§4) One-Way ANOVA test was conducted in SPSS13.0, performing statistical analysis between groups."}, "[2]": {"tested_on": "HCC827 human non-small cell lung cancer xenograft", "assay": "HCC827 human non-small cell lung cancer xenograft model", "type": "in vivo, nude mice", "settings": "for Tumor Weight (x ± S.D.) / Tumor Inhibitor Rate / Relative Tumor Volume (x ± S.D.) / T/C / Tumor Volume (x ± S.D.): HCC827 xenograft; for Tumor Inhibitor Rate: by tumor weight; for Relative Tumor Volume (x ± S.D.) / T/C / Tumor Volume (x ± S.D.): end of the assay", "method": "as §1, with “after a” for “after”\nas §2\nas §3, with “group x 100%.” for “group×100%.”\nas §4"}, "[3]": {"settings": "FaDu xenograft nude mice, 20, 40 and 80 mg/kg intragastric daily for 14 days"}, "[4]": {"settings": "20 mg/kg intragastric daily for 14 days"}, "[5]": {"settings": "40 mg/kg intragastric daily for 14 days"}, "[6]": {"settings": "80 mg/kg intragastric daily for 14 days"}, "[7]": {"settings": "HCC827 xenograft nude mice, 20, 40 and 80 mg/kg intragastric daily for 14 days"}}, "note": "Marks after values point to notes of the source that are not given here."}
{"smiles": "COCCOc1cc2ncnc(Nc3ccc(F)c(Cl)c3)c2cc1NC(=O)C=C1CCN(CCOC)CC1.CS(=O)(=O)O", "note": "[Compound 3, N-[4-(3-chloro-4-fluorophenylamino)-7-(2-methoxyethoxy)quinazolin-6-yl]-2-[1-(2-methoxyethyl)piperidin-4-ylidene]acetamide dimethylsulfonate]", "values": [{"measurement": "Body weights of the experimental animals", "setting": "[1]; [3]", "value": "not significantly reduced"}, {"measurement": "abnormality in the experimental animals", "setting": "[1]; [3]", "value": "no significant abnormality was observed"}, {"measurement": "Tumor Weight (x ± S.D.)", "setting": "[1]; [4]", "value": "0.684 ± 0.192", "unit": "g"}, {"measurement": "Tumor Inhibitor Rate", "setting": "[1]; [4]", "value": 37.5, "unit": "%"}, {"measurement": "Relative Tumor Volume (x ± S.D.)", "setting": "[1]; [4]", "value": "6.1 ± 1.3"}, {"measurement": "T/C", "setting": "[1]; [4]", "value": 61.4, "unit": "%"}, {"measurement": "Tumor Volume (x ± S.D.)", "setting": "[1]; [4]", "value": "703.3 ± 144.2** mm^3"}, {"measurement": "Tumor Weight (x ± S.D.)", "setting": "[1]; [5]", "value": "0.522 ± 0.427", "unit": "g"}, {"measurement": "Tumor Inhibitor Rate", "setting": "[1]; [5]", "value": 52.4, "unit": "%"}, {"measurement": "Relative Tumor Volume (x ± S.D.)", "setting": "[1]; [5]", "value": "5.5 ± 1.9"}, {"measurement": "T/C", "setting": "[1]; [5]", "value": 54.7, "unit": "%"}, {"measurement": "Tumor Volume (x ± S.D.)", "setting": "[1]; [5]", "value": "602.9 ± 204.4*** mm^3"}, {"measurement": "Tumor Weight (x ± S.D.)", "setting": "[1]; [6]", "value": "0.260 ± 0.128", "unit": "g"}, {"measurement": "Tumor Inhibitor Rate", "setting": "[1]; [6]", "value": 76.2, "unit": "%"}, {"measurement": "Relative Tumor Volume (x ± S.D.)", "setting": "[1]; [6]", "value": "3.2 ± 1.6"}, {"measurement": "T/C", "setting": "[1]; [6]", "value": 31.6, "unit": "%"}, {"measurement": "Tumor Volume (x ± S.D.)", "setting": "[1]; [6]", "value": "352.3 ± 157.0*** mm^3"}, {"measurement": "Body weights of the experimental animals", "setting": "[2]; [7]", "value": "not significantly reduced"}, {"measurement": "abnormality in the experimental animals", "setting": "[2]; [7]", "value": "no significant abnormality was observed"}, {"measurement": "Tumor Weight (x ± S.D.)", "setting": "[2]; [4]", "value": "0.045 ± 0.074", "unit": "g"}, {"measurement": "Tumor Inhibitor Rate", "setting": "[2]; [4]", "value": 91.7, "unit": "%"}, {"measurement": "Relative Tumor Volume (x ± S.D.)", "setting": "[2]; [4]", "value": "0.36 ± 0.45"}, {"measurement": "T/C", "setting": "[2]; [4]", "value": 5.0, "unit": "%"}, {"measurement": "Tumor Volume (x ± S.D.)", "setting": "[2]; [4]", "value": "57.3 ± 77.6*** mm^3"}, {"measurement": "Tumor Weight (x ± S.D.)", "setting": "[2]; [5]", "value": "0.026 ± 0.026", "unit": "g"}, {"measurement": "Tumor Inhibitor Rate", "setting": "[2]; [5]", "value": 95.2, "unit": "%"}, {"measurement": "Relative Tumor Volume (x ± S.D.)", "setting": "[2]; [5]", "value": "0.13 ± 0.10"}, {"measurement": "T/C", "setting": "[2]; [5]", "value": 1.8, "unit": "%"}, {"measurement": "Tumor Volume (x ± S.D.)", "setting": "[2]; [5]", "value": "18.4 ± 11.6*** mm^3"}, {"measurement": "Tumor Weight (x ± S.D.)", "setting": "[2]; [6]", "value": "0.014 ± 0.013", "unit": "g"}, {"measurement": "Tumor Inhibitor Rate", "setting": "[2]; [6]", "value": 97.4, "unit": "%"}, {"measurement": "Relative Tumor Volume (x ± S.D.)", "setting": "[2]; [6]", "value": "0.13 ± 0.04"}, {"measurement": "T/C", "setting": "[2]; [6]", "value": 1.8, "unit": "%"}, {"measurement": "Tumor Volume (x ± S.D.)", "setting": "[2]; [6]", "value": "20.9 ± 8.6*** mm^3"}]}
